{"source": "patent US10472347B2", "about": "“Aminopyrazine compounds with A2A antagonist properties” (Merck Sharp & Dohme Corp., priority 2014, dated 2019)"}
{"biological_target": "T1, human A2a receptor (Homo sapiens, UniProt P29274)", "T1 construct": "purchased Perkin-Elmer RBHA2AM400UA; host or cells: HEK293 cells (membranes)", "T1 sequence (P29274 whole entry)": "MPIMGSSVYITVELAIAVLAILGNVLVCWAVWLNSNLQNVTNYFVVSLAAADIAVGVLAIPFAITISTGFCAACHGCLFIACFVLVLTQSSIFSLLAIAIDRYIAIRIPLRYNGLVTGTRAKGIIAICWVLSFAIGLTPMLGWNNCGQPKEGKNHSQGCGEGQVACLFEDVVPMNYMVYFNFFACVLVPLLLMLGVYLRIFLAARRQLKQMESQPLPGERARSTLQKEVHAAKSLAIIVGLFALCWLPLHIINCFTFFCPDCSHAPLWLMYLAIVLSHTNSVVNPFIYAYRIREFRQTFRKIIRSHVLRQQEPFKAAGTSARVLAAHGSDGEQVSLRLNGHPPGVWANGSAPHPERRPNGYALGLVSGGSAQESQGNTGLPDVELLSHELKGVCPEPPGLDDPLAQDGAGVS", "experiment": "A2a competition binding assay, Scintillation Proximity technology", "settings": "membranes from HEK293 cells expressing human A2a receptor; 0.5 nM tritiated ligand", "procedure": "(§1) Binding affinities of compounds of the invention for the human A2a receptor were determined in a competition binding assay using Scintillation Proximity technology. Thus, […] from HEK293 cells expressing the human A2a receptor were incubated with a compound of the invention at concentrations ranging from 3000 nM to 0.15 nM in a reaction mixture containing also 0.5 nM of a tritiated form of 5-amino-7-[2-phenethyl]-2-(furan-2-yl)-7H-pyrazolo[4,3-e][1,2,4]triazolo[1,5-c]pyrimidine (the tritiated compound) and 100 μg of wheat germ agglutin-coated yttrium silicate SPA beads for one hour at room temperature with agitation. The beads were then allowed to settle to the bottom of the wells for 1 hr, after which the membrane-associated radioactivity was determined by scintillation counting in a TopCount microplate reader. Ki values were determined using the Cheng-Prusoff equation.\n(§2) HEK293 cells expressing the human, rat, dog or monkey adenosine 2a receptor (Purchased from Perkin-Elmer # RBHA2AM400UA).\n(§3) The Tritiated compound was prepared in-house by MRL Radiochemistry according to published methods.\n(§4) Wheat germ agglutinin-coated yttrium silicate SPA beads (GE Healthcare #RPNQ0023). Dilute to 25 mg/ml in assay buffer.\n(§5) Assay Buffer was prepared in house: Dulbecco's calcium and magnesium free phosphate buffered saline+10 mM MgCl2\n(§6) Adenosine deaminase from calf intestine, 10 mg/2 ml (Roche #10 102 105 001).\n(§7) A2a antagonist standard (9-chloro-1-(2-furanyl)-[1,2,4]triazolo1,5-c]quinazolin-5-amine from Tocris Bioscience)\n(§8) Make eight 1:3 serial dilutions in 100% DMSO from a 3 mM compound stock\n(§9) Transfer 50 nl of compound into a 384-well OptiPlate (Perkin Elmer).\n(§10) Typically, final concentrations of compound used in the assay ranged from 3000 nM to 0.152 nM.\n(§11) Dilute a solution of the Tritiated compound to 1.25 nM in assay buffer. This is a 2.5× solution. The final concentration in the assay is 0.5 nM. Calculate the concentration by counting two 5 μl aliquots.\n(§12) Use 0.25 ug of membrane/well. Dilute membranes to 9.7 μg/ml in assay buffer. Treat with 20 ug/ml adenosine deaminase (ADA) for 15 minutes at room temperature to degrade endogenous adenosine.\n(§13) Use 100 μg/well wheat germ agglutinin-coated yttrium silicate SPA beads.\n(§14) Mix ADA-treated membranes and SPA beads together for 30 min prior to assay.\n(§15) To the Perkin-Elmer Optiplate-384 containing the compound titration add 20 μl of 2.5× solution of the Tritiated compound and 30 μl of the membrane-bead mixture. Incubate for one hour at room temperature with agitation.\n(§16) Include total binding (assay buffer+1% DMSO) and non-specific binding (CGS15943, 1 μM) wells.\n(§17) Allow the beads to settle for one hour.\n(§18) A curve fitting program (i.e., Prism, Activity Base, Chemcart) is used to determine the EC50. The Ki value is calculated using the Cheng-Prusoff equation. Ki=EC50/(1+(radioligand concentration/Kd))", "units": {"EC50": "nM"}}
{"smiles": "Cc1cccnc1CNC(=O)c1nc(C)c(-c2ncco2)nc1N", "note": "[Ex-3, 3-amino-6-methyl-N-((3-methylpyridin-2-yl)methyl)-5-(oxazol-2-yl)pyrazine-2-carboxamide]", "EC50": 3.4}
{"smiles": "Cc1nc(C(=O)NCc2ncccc2C2CC2)c(N)nc1-c1ncco1", "note": "[Ex-4, 3-amino-N-((3-cyclopropylpyridin-2-yl)methyl)-6-methyl-5-(oxazol-2-yl)pyrazine-2-carboxamide]", "EC50": 4.6}
{"smiles": "Cc1cccnc1CNC(=O)c1nc(C)c(-c2ncco2)nc1N", "note": "[Ex-5, 3-amino-6-methyl-N-[(3-methylpyridin-2-yl)methyl]-5-(1,3-oxazol-2-yl)pyrazine-2-carboxamide]", "EC50": 4.7}
{"smiles": "Cc1nc(C(=O)NCc2ncccc2C2CC2)c(N)nc1-c1ncco1", "note": "[Ex-6, 3-amino-N-[(3-cyclopropylpyridin-2-yl)methyl]-6-methyl-5-(1,3-oxazol-2-yl)pyrazine-2-carboxamide]", "EC50": 5.9}
{"smiles": "Cc1nc(C(=O)NCc2cccc3cccnc23)c(N)nc1-c1ncco1", "note": "[Ex-9, 3-amino-6-methyl-5-(1,3-oxazol-2-yl)-N-(quinolin-8-ylmethyl)pyrazine-2-carboxamide]", "EC50": 2.1}
{"smiles": "Cc1cccc(CNC(=O)c2nc(C)c(-c3ncco3)nc2N)n1", "note": "[Ex-10, 3-amino-6-methyl-N-[(6-methylpyridin-2-yl)methyl]-5-(1,3-oxazol-2-yl)pyrazine-2-carboxamide]", "EC50": 1.2}
{"biological_target": "T1, human A2a receptor", "experiment": "A2a competition binding assay, Scintillation Proximity technology", "settings": "membranes from HEK293 cells expressing human A2a receptor; Ki by Cheng-Prusoff equation", "procedure": "as §1, §2, §3, §4, §5, §6, §7, §8, §9, §10, §11, §12, §13, §14, §15, §16, §17, §18", "units": {"Ki": "nM"}}
{"smiles": "Cc1nc(C(=O)NC2CCOc3ccccc32)c(N)nc1-c1ncco1", "note": "(stereo in doubt) [Ex-145, 3-amino-N-[(4R)-3,4-dihydro-2H-chromen-44-yl]-6-methyl-5-(1,3-oxazol-2-yl)pyrazine-2-carboxamide]", "Ki": 4.22}
{"smiles": "Cc1nc(C(=O)NC2CCOc3ccccc32)c(N)nc1-c1ncco1", "note": "(stereo in doubt) [Ex-146, 3-amino-N-[(4S)-3,4-dihydro-2H-chromen-4-yl]-6-methyl-5-(1,3-oxazol-2-yl)pyrazine-2-carboxamide]", "Ki": 5.57}
{"smiles": "COC[C@H]1CCC[C@H]1NC(=O)c1nc(C)c(-c2ncco2)nc1N", "note": "(stereo in doubt) [Ex-171, 3-amino-N-[(1R,2S)-2-(methoxymethyl)cyclopentyl]-6-methyl-5-(1,3-oxazol-2-yl)pyrazine-2-carboxamide]", "Ki": 1.03}
{"smiles": "Cc1cccnc1CNC(=O)c1nc(C)c(-c2ncco2)nc1N", "note": "[Ex-5, 3-amino-6-methyl-N-[(3-methylpyridin-2-yl)methyl]-5-(1,3-oxazol-2-yl)pyrazine-2-carboxamide]", "Ki": 0.199}
{"smiles": "Cc1nc(C(=O)NCc2ncccc2C2CC2)c(N)nc1-c1ncco1", "note": "[Ex-6, 3-amino-N-[(3-cyclopropylpyridin-2-yl)methyl]-6-methyl-5-(1,3-oxazol-2-yl)pyrazine-2-carboxamide]", "Ki": 0.224}
{"smiles": "Cc1nc(C(=O)N[C@@H]2CCc3cccnc32)c(N)nc1-c1ncco1", "note": "[Ex-7A, (R)-3-amino-N-(6,7-dihydro-5H-cyclopenta[b]pyridin-7-yl)-6-methyl-5-(1,3-oxazol-2-yl)pyrazine-2-carboxamide]", "Ki": 5.18}
{"smiles": "Cc1nc(C(=O)N[C@H]2CCc3cccnc32)c(N)nc1-c1ncco1", "note": "[Ex-7B, (S)-3-amino-N-(6,7-dihydro-5H-cyclopenta[b]pyridin-7-yl)-6-methyl-5-(1,3-oxazol-2-yl)pyrazine-2-carboxamide]", "Ki": 0.387}
{"smiles": "Cc1nc(C(=O)NCc2cccc3cccnc23)c(N)nc1-c1ncco1", "note": "[Ex-9, 3-amino-6-methyl-5-(1,3-oxazol-2-yl)-N-(quinolin-8-ylmethyl)pyrazine-2-carboxamide]", "Ki": 0.64}
{"smiles": "Cc1cccc(CNC(=O)c2nc(C)c(-c3ncco3)nc2N)n1", "note": "[Ex-10, 3-amino-6-methyl-N-[(6-methylpyridin-2-yl)methyl]-5-(1,3-oxazol-2-yl)pyrazine-2-carboxamide]", "Ki": 0.573}
{"smiles": "Cc1nc(C(=O)NCc2c(F)cccc2F)c(N)nc1-c1ncco1", "note": "[Ex-11, 3-amino-N-(2,6-difluorobenzyl)-6-methyl-5-(1,3-oxazol-2-yl)pyrazine-2-carboxamide]", "Ki": 0.125}
{"smiles": "Cc1nc(C(=O)NCc2ccno2)c(N)nc1-c1ncco1", "note": "[Ex-12, 3-amino-N-(isoxazol-5-ylmethyl)-6-methyl-5-(1,3-oxazol-2-yl)pyrazine-2-carboxamide]", "Ki": 9.82}
{"smiles": "Cc1nc(C(=O)NCc2ncco2)c(N)nc1-c1ncco1", "note": "[Ex-13, 3-amino-6-methyl-5-(1,3-oxazol-2-yl)-N-(1,3-oxazol-2-ylmethyl)pyrazine-2-carboxamide]", "Ki": 6.06}
{"smiles": "Cc1c[nH]c(CNC(=O)c2nc(C)c(-c3ncco3)nc2N)n1", "note": "[Ex-14, 3-amino-6-methyl-N-[(4-methyl-1H-imidazol-2-yl)methyl]-5-(1,3-oxazol-2-yl)pyrazine-2-carboxamide]", "Ki": 2.12}
{"smiles": "Cc1nc(C(=O)NCc2nccn2C)c(N)nc1-c1ncco1", "note": "[Ex-15, 3-amino-6-methyl-N-[(1-methyl-1H-imidazol-2-yl)methyl]-5-(1,3-oxazol-2-yl)pyrazine-2-carboxamide]", "Ki": 1.25}
{"smiles": "Cc1nc(C(=O)NCc2ncc[nH]2)c(N)nc1-c1ncco1", "note": "[Ex-16, 3-amino-N-(1H-imidazol-2-ylmethyl)-6-methyl-5-(1,3-oxazol-2-yl)pyrazine-2-carboxamide]", "Ki": 5.14}
{"smiles": "Cc1nc(C(=O)NCc2cncs2)c(N)nc1-c1ncco1", "note": "[Ex-17, 3-amino-6-methyl-5-(1,3-oxazol-2-yl)-N-(1,3-thiazol-5-ylmethyl)pyrazine-2-carboxamide]", "Ki": 17.3}
{"smiles": "Cc1nc(C(=O)NCc2ncccc2C(F)(F)F)c(N)nc1-c1ncco1", "note": "[Ex-18, 3-amino-6-methyl-5-(1,3-oxazol-2-yl)-N-{[3-(trifluoromethyl)pyridin-2-yl]methyl}pyrazin-2-carboxamide]", "Ki": 0.151}
{"smiles": "Cc1nc(C(=O)NCc2ncccn2)c(N)nc1-c1ncco1", "note": "[Ex-19, 3-amino-6-methyl-5-(1,3-oxazol-2-yl)-N-(pyrimidin-2-ylmethyl)pyrazine-2-carboxamide]", "Ki": 2.76}
{"smiles": "Cc1nc(C(=O)NCc2ncccc2F)c(N)nc1-c1ncco1", "note": "[Ex-20, 3-amino-N-[(3-fluoropyridin-2-yl)methyl]-6-methyl-5-(1,3-oxazol-2-yl)pyrazine-2-carboxamide]", "Ki": 0.365}
{"smiles": "Cc1nc(C(=O)NCc2cccc(N(C)C)n2)c(N)nc1-c1ncco1", "note": "[Ex-21, 3-amino-N-{[6-(dimethylamino)pyridin-2-yl]methyl}-6-methyl-5-(1,3-oxazol-2-yl)pyrazine-2-carboxamide]", "Ki": 0.934}
{"smiles": "COc1cccc(CNC(=O)c2nc(C)c(-c3ncco3)nc2N)n1", "note": "[Ex-22, 3-amino-N-[(6-methoxypyridin-2-yl)methyl]-6-methyl-5-(1,3-oxazol-2-yl)pyrazine-2-carboxamide]", "Ki": 0.919}
{"smiles": "Cc1nc(C(=O)NCc2cccc3ccncc23)c(N)nc1-c1ncco1", "note": "[Ex-23, 3-amino-N-(isoquinolin-8-ylmethyl)-6-methyl-5-(1,3-oxazol-2-yl)pyrazine-2-carboxamide]", "Ki": 0.293}
{"smiles": "Cc1nc(C(=O)N2CCCc3ccccc32)c(N)nc1-c1ncco1", "note": "[Ex-24]", "Ki": 78.5}
{"smiles": "Cc1nc(C(=O)NCCc2ccccn2)c(N)nc1-c1ncco1", "note": "[Ex-25, 3-amino-6-methyl-5-(1,3-oxazol-2-yl)-N-(2-pyridin-2-ylethyl)pyrazine-2-carboxamide]", "Ki": 16.2}
{"smiles": "Cc1nc(C(=O)NCc2ccn(C)n2)c(N)nc1-c1ncco1", "note": "[Ex-26, 3-amino-6-methyl-N-[(1-methyl-1H-pyrazol-3-yl)methyl]-5-(1,3-oxazol-2-yl)pyrazine-2-carboxamide]", "Ki": 1.71}
{"smiles": "Cc1nc(C(=O)NCc2ccncc2)c(N)nc1-c1ncco1", "note": "[Ex-27, 3-amino-6-methyl-5-(1,3-oxazol-2-yl)-N-(pyridin-4-ylmethyl)pyrazine-2-carboxamide]", "Ki": 120}
{"smiles": "Cc1nc(C(=O)NCc2cccnc2)c(N)nc1-c1ncco1", "note": "[Ex-28, 3-amino-6-methyl-5-(1,3-oxazol-2-yl)-N-(pyridin-3-ylmethyl)pyrazine-2-carboxamide]", "Ki": 14.5}
{"smiles": "Cc1nc(C(=O)NCc2cc3ccccc3cn2)c(N)nc1-c1ncco1", "note": "[Ex-29, 3-amino-N-(isoquinolin-3-ylmethyl)-6-methyl-5-(1,3-oxazol-2-yl)pyrazine-2-carboxamide]", "Ki": 0.336}
{"smiles": "Cc1nc(C(=O)NCc2ccccc2F)c(N)nc1-c1ncco1", "note": "[Ex-30, 3-amino-N-(2-fluorobenzyl)-6-methyl-5-(1,3-oxazol-2-yl)pyrazine-2-carboxamide]", "Ki": 0.314}
{"smiles": "Cc1nc(C(=O)NCc2cccc(F)c2)c(N)nc1-c1ncco1", "note": "[Ex-31, 3-amino-N-(3-fluorobenzyl)-6-methyl-5-(1,3-oxazol-2-yl)pyrazine-2-carboxamide]", "Ki": 0.737}
{"smiles": "Cc1nc(C(=O)NCc2ccc(F)cc2)c(N)nc1-c1ncco1", "note": "[Ex-32, 3-amino-N-(4-fluorobenzyl)-6-methyl-5-(1,3-oxazol-2-yl)pyrazine-2-carboxamide]", "Ki": 1.5}
{"smiles": "Cc1nc(C(=O)NCc2ccc3ccccc3n2)c(N)nc1-c1ncco1", "note": "[Ex-33, 3-amino-6-methyl-5-(1,3-oxazol-2-yl)-N-(quinolin-2-ylmethyl)pyrazine-2-carboxamide]", "Ki": 2.8}
{"smiles": "Cc1nc(C(=O)N2CCCC(F)(F)C2)c(N)nc1-c1ncco1", "note": "[Ex-34, 3-[(3,3-difluoropiperidin-1-yl)carbonyl]-5-methyl-6-(1,3-oxazol-2-yl)pyrazin-2-amine]", "Ki": 847}
